The test system of data set [1] is H5N1 IAV. It counts as cell-based, influenza A virus.
For data set [2], the system named is H5N1 IAV. It counts as cell-based, influenza A virus. The source holds these as a separate data set.
The test system of data set [3] is H5N1 IAV HA-induced hemolysis. The data set can be described thus: microbe, parasite or virus in culture. Type of data set: cell-based. Particulars: Influenza A virus, H5N1, in Gallus gallus, pH 5.2, read-out: IC50 hemolysis inhibition.
Data set [4] deals with H5N1 IAV (A/Duck/Guangdong/99). The data set can be described thus: microbe, parasite or virus in culture. It counts as cell-based, influenza A virus.
Data set [5] has as its system A549 cells. The data set can be described thus: MTT cytotoxicity assay. Particulars: for CC50: MTT, 24 h of compound treatment. In general terms: Tetrazolium assays rely on reduction of a dye to a coloured formazan, in cell work by metabolically active cells.
Data set [6] concerns PR8 (H1N1) IAV (A/Puerto Rico/8/34). The data set can be described thus: microbe, parasite or virus in culture. Type of data set: cell-based. To be noted: Influenza A virus, A549.
Data set [7] concerns H9N2 IAV (A/Chicken/Guangdong/16/1996). The data set can be described thus: microbe, parasite or virus in culture. Type of data set: cell-based. To be noted: Influenza A virus, H9N2, A549, in Gallus gallus.
In data set [8] the test system is H3N2 IAV (A/Guangdong/Dongguan/1100/2006). The data set can be described thus: microbe, parasite or virus in culture. Type of data set: cell-based. Particulars: Influenza A virus, H3N2, A549.
Data set [9] concerns IAV (H1N1, H5N1, H9N2 and H3N2). The data set can be described thus: microbe, parasite or virus in culture. It counts as cell-based, influenza A virus.
Data set [10] relates to H5N1 IAV. Type of data set: cell-based, influenza A virus. This is another data set of the same source.
Data set [11] relates to H5N1 IAV. Type of data set: cell-based, influenza A virus. The source holds these as a separate data set.
Data set [12] relates to A/Duck/Guangdong/99(H5N1) HA. It counts as cell-based, influenza A virus.
Data set [13] has as its target Recombinant influenza HA protein from A/Vietnam/1203/2004 (H5N1) (Influenza A virus (A/Vietnam/1203/2004(H5N1)), UniProt Q5EP31). Briefly: biochemical. Type of data set: binding.
Data set [14] has as its target FKBP12 (FK506 binding protein 1A, 12 kDa) (Homo sapiens, UniProt P62942).

Counter-ions that a name gives are not always drawn. Like-named read-outs stand apart in the source and are kept apart here.

We go through 5 molecules from PMC7077228 (Viruses, 2020).

What is called IC50 is the concentration at which inhibition is half-maximal. For orientation: EC50 means the midpoint of the concentration-response curve. What is called CC50 is the concentration giving 50% cytotoxicity. For orientation: Kd means a measure of binding affinity in units of concentration.

Chain of FKBP12 (FK506 binding protein 1A, 12 kDa) (P62942 whole entry): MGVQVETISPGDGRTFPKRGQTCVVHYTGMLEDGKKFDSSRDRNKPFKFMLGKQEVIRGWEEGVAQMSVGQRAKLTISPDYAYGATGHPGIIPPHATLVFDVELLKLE

With `NC(=O)c1ncn([C@@H]2O[C@H](CO)[C@@H](O)[C@H]2O)n1` [ribavirin, Ribavirin hydrochloride, reference compound], the “progeny virus yield, post-treatment” value in data set [1] is “inhibition only in the post-treatment mode”. Also, the “inhibition of viral replication, compound added after 4 hpi” value in [2] was “no inhibition”.

Consider `CCOC(=O)c1c(CSc2ccccc2)n(C)c2cc(Br)c(O)c(CN(C)C)c12` [arbidol, Arbidol hydrochloride, reference compound], for which, in data set [3], the half-inhibitory concentration (IC50) was 51 µM.

Consider `CC1(C)CC[C@]2(C(=O)O)CC[C@]3(C)C(=CC[C@@H]4[C@@]5(C)CC[C@H](O)C(C)(C)[C@@H]5CC[C@]43C)[C@@H]2C1` [OA-0, oleanolic acid], for which the concentration for a half-maximal effect (EC50) in data set [4] is 14.2 ± 1.9 µM; in [4] (Influenza A virus, H5N1, A549) it was not above 14.2 µM. Further, the “SI (selectivity index), ratio of CC50 to EC50” value in [4] is 4.7. Also, the CC50 in data set [5] is 67.4 ± 4.8 µM; in [5] (listed as oleanolic acid) it was not below 31.1 µM.

On to `CNC(=O)[C@]12CCC(C)(C)C[C@H]1C1=CC[C@@H]3[C@@]4(C)CC[C@H](O[C@@H]5O[C@H](CO)[C@@H](O[C@@H]6O[C@@H](C)[C@H](O)[C@@H](O)[C@H]6O)[C@H](O)[C@H]5O[C@@H]5O[C@@H](C)[C@H](O)[C@@H](O)[C@H]5O)C(C)(C)[C@@H]4CC[C@@]3(C)[C@]1(C)CC2` [OA-10], for which the “SI (selectivity index), ratio of CC50 to EC50” value in data set [4] is recorded as more than 45. This molecule also returned an EC50 in [4] (Influenza A virus, H5N1, A549) of 14 ± 2.3 µM. In data set [6], this molecule gave an EC50 of 6.7 ± 1.4 µM. In data set [7], this molecule came in with an EC50 of 15.3 ± 2.5 µM. This molecule had a concentration giving a half-maximal response (EC50) in [8] of 19.6 ± 3.7 µM. In addition, the “progeny virus titer on PR8, H9N2 and H3N2 infection” value in data set [9] is “reduced progeny virus titer”. For the same molecule, the EC50 in [9] (Influenza A virus, H1N1|H3N2|H5N1|H9N2, A549, read-out: EC50 range across IAV subtypes) lay in the range of 6.7 to 19.6 µM. Further, in [10], the “H5N1 IAV NP RNA levels” value was “significantly inhibited” and the “reduction in progeny virus production” value was determined as 1.8 log. For the same molecule, the “effect on IAV infection after co-incubation at 4 °C (virus binding)” value in [11] is given as “did not affect IAV infection”. Besides, in [1], the “effect of combination on progeny virus titer and NP production” value is listed as “synergistic effect”; the “progeny virus yield and NP protein expression, co-treatment” value is “mild but significant reduction”; the “progeny virus yield and viral NP production, pre-treatment” value was “did not reduce progeny virus yield and viral NP production”; the “progeny virus yield, post-treatment” value is listed as “one log reduction”. Also, in data set [12], the “inhibition of HA adsorption to chicken RBCs” value is reported as “did not inhibit HA adsorption to chicken RBCs”. Besides, in data set [12] (concentrations ≥40 µM), the “inhibition of H5N1 virus adsorption to chicken RBCs” value is recorded as “partially blocked”. Besides, the dissociation constant (Kd) in data set [13] was determined as 2.98 pM. In data set [14], the “interaction with negative control protein” value is given as “did not interact”. The IC50 in [3] amounted to 26 µM. Moreover, the “cytotoxicity at concentrations ≤ 80 µM” value in data set [5] (after 24, 48 or 72 h of treatment) is listed as “No obvious cytotoxicity”.

`CCC(CC)[C@H](NC(C)=O)[C@@H]1[C@H](O)[C@@H](C(=O)O)C[C@H]1N=C(N)N` [peramivir, Peramivir, reference compound]: in data set [10], the “inhibition on IAV infections (positive control)” value is “significant inhibition”. In data set [1], the “progeny virus yield and NP protein expression, co-treatment” value is “more significant inhibition”; the “progeny virus yield, post-treatment” value is “more significant inhibition”.
